“Also recorded” adds a separate entry of the source.
Tests used:
[1] = test system: primary mouse keratinocytes; assay: Cornified envelope (cross-linked protein) assay, primary mouse keratinocytes; assay type: cell-based
Description: FIGS. 3A and 3B. A: Time course for cornification of primary mouse keratinocytes in response to MC. Boxes represent […] Ca^2+, triangles represent 100 μM MC, 1.4 mM Ca^2+, and solid circles represent 1 mM MC, 1.4 mM Ca^2+. […] Cells were incubated in medium with 1.4 mM Ca^2+ and MC for 4 hours, then were incubated with MTT (0.5 mg/ml in medium) for a further 4 hours before determination of formazan production.
Primary mouse keratinocytes were isolated from BALB/c newborn mouse skin. Primary keratinocytes, the benign neoplastic keratinocyte cell lines 308 and SP-1 (Strickland et al, Cancer Res., 48, 165-169, 1988) and the mouse squamous cell carcinoma line 1-7 (Greenhalgh et al., Proc. Natl. Acad. Sci., 87, 643-647, 1990) were grown in Eagle's minimal essential medium with 8% fetal calf serum (FCS) (chelexed) and penicillin 20 iu/ml, streptomycin 20 ug/ml (P/S). Unless otherwise indicated, the Ca^2+ concentration in medium was adjusted to 0.05 mM (Hennings et al., Cells, 19, 245-254, 1980). A431 human epidermoid carcinoma cells were obtained from ATCC, Rockville, Md., and were routinely passaged in DMEM with 10% FCS, P/S, glutamine (2 mM) and pyruvate (1 mM). SQCC-Y1 human squamous carcinoma cells and non-tumorigenic HPV 18 and SV 40 infected human keratinocytes were kindly donated by Dr. James Rheinwald of Harvard University, Boston, Mass. and Dr. Richard Schlegel of Georgetown University, Washington D.C. respectively. Human cells were cultured in DMEM/Ham's F12 1:1, 10% FCS, P/S and epidermal growth factor 10 ng/ml.
Primary mouse keratinocytes were incubated with MC for 0, 0.5, 1, 4 and 48 hours and were processed as follows.
The assay measures insoluble cross-linked protein envelopes as described (Hough-Monroe et al. Analytical biochem., 199, 25-28, 1991), with modifications as follows. Cornified envelopes were prepared by scraping monolayers into 2% sodium dodecylsulphate (SDS), 20 mM dithiothreitol (DTT) in phosphate buffered saline (PBS). Unattached cells were pelleted from medium and were resuspended in SDS/DTT and pooled with attached cells. Samples were boiled for 10 mins. Cornified envelope samples were examined under the microscope using phase contrast optics or were applied to an RC60 membrane (Schleicher and Schuell, Keene, N.H.) on a 96-well dot-blot apparatus attached to a vacuum. Samples were washed three times with SDS/DTT and the resultant protein spots on RC60 membrane were fixed and stained as described. Sports were excised and eluted with 1% NH3 OH concentrated solution, 66% methanol (200 ul) overnight. Absorbance of eluate was measured on a Titertek plate reader at 600 nm.
Cells were seeded at low density and were treated with MC for 3 days. Cells were then counted and increase in cell number was compared to untreated controls, or cells were processed for cross-linked protein.
Inhibitors were added 30 mins before MC or stsp (FIG. 6). Cross-linked protein was measured by the cornified envelope assay, described in Example 2.

[2] = test system: primary mouse keratinocytes; assay: Growth inhibition (cell count), primary mouse keratinocytes; assay type: cell-based; details: Keratinocyte, 72 h, 25 μM MC, 3 days, read-out: cells that continued to grow
Description: FIG. 4. Cross-linked Protein Production vs Growth Inhibition in Mouse Primary Keratinocytes. Cell growth is represented by black squares and cross-linked protein production by white squares. Results are ±SD (n=3) of one experiment, representative of three.
Cells were seeded at low density and were treated with MC for 3 days. Cells were then counted and increase in cell number was compared to untreated controls, or cells were processed for cross-linked protein. (FIG. 4) Protein cross-linking was rapid, commencing within 4 hours at 1 mM in mouse primary keratinocytes, (FIG. 3A) and was accompanied by cell death, as measured by the MTT assay (FIG. 3B).

[3] = test system: SP-1 cell tumors grafted on athymic nude mice; assay: Grafted SP-1 cell tumor formation in nude mice; assay type: in vivo, mouse; details: topical MC, 1 mM and 100 mM; twice weekly for two weeks or 5 days each week for three weeks
Description: FIGS. 10A and 10B. […] Numbers above bars denote the number of animals with tumors/the number of animals in the group. In panel A, MC was applied twice weekly for two weeks. In panel B, MC was applied on 5 days each week for three weeks.
Skin grafting was performed on athymic nude mice using 0.5×10^6 SP-1 cells with 8×10^6 newborn SENCAR mouse dermal fibroblasts as described (Strickland et al., Carcinogenesis, 14, 205, 1993). Domes (plastic covers placed over the site of skin grafting) were removed one week after grafting, and after a further week, topical application of MC commenced. The agent was applied in 25 ul 90% acetone, 10% DMSO vehicle. Weekly, tumor measurements were recorded up to 5 weeks after grafting.
Grafting was performed as described above. Tumors were measured using calipers at the termination of the experiment and tumors were fixed and sections were taken to confirm the tumor phenotype by microscopy.

[4] = test system: 308 cells (benign neoplastic mouse keratinocytes); assay: Cornified envelope (cross-linked protein) assay, 308 cells; assay type: cell-based; details: 308 (papilloma), 48 h, 0.1-1 mM
From the text: (§1) FIG. 1. MC Increases Cross-linked Protein in Epidermal Cell Lines. Black squares represent HPV 18 human epithelial keratinocytes; black circles represent SV 40 infected human keratinocytes; black triangles represent (SQCC-Y1) cells; white triangles represent (SP-1) benign tumor mouse keratinocytes; white squares represent (308 cells) benign mouse keratinocytes; and white circles represent (I-7) cells mouse squamous cell carcinoma.
(§2) Primary mouse keratinocytes were isolated from BALB/c newborn mouse skin. Primary keratinocytes, the benign neoplastic keratinocyte cell lines 308 and SP-1 (Strickland et al, Cancer Res., 48, 165-169, 1988) and the mouse squamous cell carcinoma line 1-7 (Greenhalgh et al., Proc. Natl. Acad. Sci., 87, 643-647, 1990) were grown in Eagle's minimal essential medium with 8% fetal calf serum (FCS) (chelexed) and penicillin 20 iu/ml, streptomycin 20 ug/ml (P/S). Unless otherwise indicated, the Ca^2+ concentration in medium was adjusted to 0.05 mM (Hennings et al., Cells, 19, 245-254, 1980). […]
(§3) Cells were incubated with MC for 48 hours, then cross-linked protein was isolated and measured as described in Example 1.
(§4) The assay measures insoluble cross-linked protein envelopes as described (Hough-Monroe et al. Analytical biochem., 199, 25-28, 1991), with modifications as follows. […] Absorbance of eluate was measured on a Titertek plate reader at 600 nm.

[5] = test system: SV 40 infected human keratinocytes; assay: Cornified envelope (cross-linked protein) assay, SV 40 infected keratinocytes; assay type: cell-based; details: 48 h, 0.1-1 mM
From the text: as §1, §2, §3, §4

[6] = Hori et al., J. Antibiot., 45, 280-282, 1992; cited from earlier work

COC(=O)C=Cc1cc(O)ccc1O [MC, methyl 2,5-dihydroxycinnamate]
cornification after 48 hours ([1]; 100 μM, 48 hours): effective | cornification after 48 hours ([1]; 1 mM, 48 hours): effective | time within which cornification / cross-linking occurs or commences ([1]; 1 mM, primary mouse keratinocytes): ≤ 4 h | cross-linked protein at 4° C. and 37° C. ([1]; 4° C. and 37° C., 48 hours): took place at 4 °C and 37 °C; also recorded: Induces Cross-linked protein; also recorded: able to induce cross-linked protein effectively at 4° or 37 °C | minimal effective concentration ([1]; Keratinocyte, 72 h, primary mouse keratinocytes, 3 days, read-out: concentration required to produce protein cross-linking): > 50 µM | effect of transglutaminase inhibitors on cross-linking activity ([1]; LTB 2 and HPB 2 at 100 μM, MC 75 or 1000 μM or staurosporine 10 nM, 48 hours): not affected by transglutaminase inhibitors; also recorded: not inhibited by transglutaminase (TGase) inhibitors; also recorded: do not Prevent Protein Cross-linking | cross-linked protein (envelope production) ([1]; primary mouse keratinocytes, 48 h, 0.1-1 mM): induced crosslinked envelope production; also recorded: increased cross-linked protein in a dose-dependent manner | activity at 25 µM [2]: 20% | growth / formation of grafted SP-1 tumors [3]: inhibited the growth of tumors; also recorded: inhibits Grafted SP-1 cell Tumor Formation; also recorded: inhibit tumor formation | cross-linked protein (envelope production) [4]: induced crosslinked envelope production; also recorded: increased cross-linked protein in a dose-dependent manner | cross-linked protein (envelope production) [5]: induced crosslinked envelope production; also recorded: increased cross-linked protein in a dose-dependent manner | half life in serum [6]: short

Source: US5610185A, “Method for the treatment of hyperproliferative epithelial skin diseases by topical application of hydroxylated aromatic protein cross-linking compounds” (The United States of America as represented by the …, priority 1995, dated 1997)
